Common to all, as to assay type: cell-based
In one test the test system is H. pylori Hp A-4. Put plainly: Direct comparison of Compound 26 in 5% FBS on H. pylori and A. baumannii. The protocol:
A direct comparison of Compound 26 in 5% […] on H. pylori Hp A-4 and A. baumannii BAA-1797 was performed. The conditions were standard liquid culture conditions for each organism in 5% FBS. A lawn of H. pylori Hp A-4 on a blood agar plate was prepared. 1 μL of Compound 26 at various concentrations and 1 μL of 100% sterile DMSO were spotted on the blood agar plate. The plate was incubated for 4 days at 37° C. in 5% CO2.

Test [1] relates to A. baumannii ATCC 15151. Put plainly: microbe, parasite or virus in culture. The following applies: for MIC: Acinetobacter baumannii. The procedure: A. baumannii ATCC 15151 was grown from a glycerol stock by placing a small volume of cells onto a MHA plate. The MHA plate was incubated overnight at 37° C. A single colony was subsequently used to inoculate MHB to obtain a bacterial broth suspension. The MHB broth suspension was grown at 37° C. on a rotary shaking incubator (100 rpm) for 12 hours. The bacterial cell concentration was adjusted to ˜5×10^5 CFU/mL in MHB or MHB using OD at 595 nm. […] (PAO) and the negative control was non-treated cells. All treatments were performed in triplicate. The plate was incubated for 20 hours at 37° C. in a Tecan plate reader, where the cells were shaken every hour and an OD reading was taken at 600 nm. […] These cells were again plated in a 96-well plate and incubated as before. This was performed a total of 30 days.

Test [2] has as its system A. baumannii ATCC BAA-1797. Put plainly: MIC on A. baumannii ATCC BAA-1797. The note with it: Acinetobacter baumannii. The gist of the method:
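Cells adjusted to ~5×10^5 CFU/mL in MHB or MHB with 10%, 20% or 40% FBS, treated with two-fold serial compound dilutions in glass tubes and incubated 18 hours at 37° C. Growth read visually or by MTT (10% v/v, 10 min) with OD at 595 nm.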

In test [3] the test system is drug-resistant A. baumannii strains obtained from the CDC and Prevention Antimicrobial Isolate Bank. Put plainly: MIC on drug-resistant A. baumannii strains from the CDC Antimicrobial Isolate Bank. The following applies: Acinetobacter baumannii, 18 h, 18 hours.
Test [4] has as its system A. baumannii ATCC 15151. As to the kind of experiment: ATP decrease (luciferase). The following applies: 1xMIC and 2xMIC; 25 minutes.

The text below walks through data of patent US12655101B2, “Small molecules with antibacterial activity” (NEW MEXICO TECH UNIVERSITY RESEARCH PARK CORPORATION, priority 2021, dated 2026).

SMILES strings stand for the structures. Like-named read-outs stand apart in the source and are kept apart here. Bounds are passed on as bounds.

As for `Cl.Clc1ccc(N/N=C/c2c[nH]c3cccc(OCc4ccccc4)c23)cc1` [Compound 26, (E)-2-((4-(benzyloxy)-1H-indol-3-yl)methylene)-1-(4-chlorophenyl)hydrazin-1-ium], in the test on H. pylori Hp A-4, the “increase in anti-bacterial activity for H. pylori compared to A. baumannii” value is 16.6 fold. Also, in the test on A. baumannii ATCC 15151 [1] (30 days), the “change of MIC from Day 0 to Day 30” value is 2 fold. The development of resistance entry with A. baumannii ATCC 15151 [1] (30 days) is recorded as “slight resistance”. Moreover, the MIC with A. baumannii ATCC 15151 [1] (ATCC15151, 0 h, read-out: Starting MIC Day 0, A. baumannii ATCC 15151, Day 0) is 6 µM; with A. baumannii ATCC 15151 [1] (ATCC15151, read-out: Final MIC Day 30, A. baumannii ATCC 15151, Day 30) it was 12 µM; in test [2] (ATCC 1797 / ATCC BAA-1797, 0% FBS, read-out: MIC (μM) in MDR A. baumannii ATCC 1797 0% FBS), 6 µM; in test [2] (ATCC 1797 / ATCC BAA-1797, 10% FBS, read-out: MIC (μM) in MDR A. baumannii ATCC 1797 10% FBS), over 100 µM; in test [2] (ATCC 1797 / ATCC BAA-1797, read-out: MIC (μM) in MDR A. baumannii ATCC 1797 40% FBS, 40% FBS), 100 µM; in test [2] (ATCCBAA1797, 18 h, read-out: MIC in the presence of 40% FBS, A. baumannii ATCC BAA-1797, 40% FBS), 50 µM. Besides, the MIC in test [2] (ATCCBAA1797, A. baumannii ATCC BAA-1797, 10% FBS, read-out: MIC in the presence of 10% FBS) was over 100 µM; in test [2] (ATCCBAA1797, A. baumannii ATCC BAA-1797, absence of serum, read-out: MIC in the absence of serum), 5 µM; in test [2] (ATCCBAA1797, Table 7, 10% FBS, read-out: MIC in 10% FBS), over 100 µM; in test [2] (ATCCBAA1797, Table 7, no serum stated, read-out: MIC) it was 6 µM; in test [2] (ATCCBAA1797, read-out: MIC in 40% FBS (μM), Table 7, 40% FBS), 100 µM; in test [3] (A. baumannii CDC AR033, read-out: MIC values for AR033), 6 µM. Also, the MIC in test [3] (A. baumannii CDC AR083, read-out: MIC values for AR083) turned out to be 6 µM. Also, in the test on A. baumannii ATCC 15151 [1] (Table 7), the “Evolution of resistance?” value is recorded as “Yes; 2-fold”. Also, the ATP decrease entry in the test on A. baumannii ATCC 15151 [4] is “caused a decrease in ATP”.
